Molecular target: T1, EPHA5 (Homo sapiens, UniProt P54756)
T1 construct: purchased Thermo Fisher Scientific (Life Technologies) SelectScreen
Experiment: SelectScreen Z'LYTE
Format: biochemical
Method in brief: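 NU5455 was profiled across the SelectScreen Broad panel of kinase activity and binding assays. Z'LYTE reactions such as CSF1R ran at apparent Km ATP, while the Adapta CAMK1 assay used ATP listed as 10. Values are given as percent.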

T1 sequence (P54756 25-1037): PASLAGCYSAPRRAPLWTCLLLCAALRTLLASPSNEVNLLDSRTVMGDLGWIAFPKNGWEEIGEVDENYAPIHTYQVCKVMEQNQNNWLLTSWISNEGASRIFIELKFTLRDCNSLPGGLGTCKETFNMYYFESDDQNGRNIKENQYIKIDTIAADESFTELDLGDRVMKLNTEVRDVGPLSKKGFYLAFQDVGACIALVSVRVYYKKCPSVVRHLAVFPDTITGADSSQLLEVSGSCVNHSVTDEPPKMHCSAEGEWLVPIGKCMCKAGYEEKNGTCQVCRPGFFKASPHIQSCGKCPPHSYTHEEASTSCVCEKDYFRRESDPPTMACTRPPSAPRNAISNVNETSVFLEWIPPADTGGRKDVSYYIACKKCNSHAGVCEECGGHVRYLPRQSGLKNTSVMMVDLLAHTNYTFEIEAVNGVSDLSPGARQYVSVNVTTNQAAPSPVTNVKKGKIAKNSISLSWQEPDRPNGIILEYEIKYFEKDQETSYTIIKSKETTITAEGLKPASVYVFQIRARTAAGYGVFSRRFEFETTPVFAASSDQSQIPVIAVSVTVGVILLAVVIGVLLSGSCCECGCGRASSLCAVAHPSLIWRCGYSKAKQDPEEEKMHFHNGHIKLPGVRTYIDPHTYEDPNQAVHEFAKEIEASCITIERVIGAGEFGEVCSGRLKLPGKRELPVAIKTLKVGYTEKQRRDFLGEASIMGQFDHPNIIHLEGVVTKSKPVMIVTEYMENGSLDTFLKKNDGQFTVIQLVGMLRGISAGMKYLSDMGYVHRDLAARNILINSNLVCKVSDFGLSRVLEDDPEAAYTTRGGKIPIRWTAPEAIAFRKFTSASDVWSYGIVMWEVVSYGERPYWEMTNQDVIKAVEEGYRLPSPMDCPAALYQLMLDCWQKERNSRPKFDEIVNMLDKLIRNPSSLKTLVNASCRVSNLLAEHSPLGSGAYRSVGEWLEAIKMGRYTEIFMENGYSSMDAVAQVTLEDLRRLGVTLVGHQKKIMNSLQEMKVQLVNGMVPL

`CN(C(=O)CN1CCOCC1)c1ccc2sc3c(-c4cccc5c(=O)cc(N6CC7CCC(C6)O7)oc45)cccc3c2c1` [NU5455] was tested, and the inhibition at 1 µM was 5.1%.

Reference: PMC6934184, “Selective DNA-PKcs inhibition extends the therapeutic index of localized radiotherapy and chemotherapy” (The Journal of Clinical Investigation, 2019)
